Assays:
[1] = tested on: GFP-tagged RUSH antibody trafficking, U2OS clone #7 cells; test: Time lapse / fluorescence microscopy of GFP-tagged antibody trafficking in clone #7; type: cell-based, human
Source text: (§1) FIGS. 2A-2F show characterization of the anti-PD-L1 antibody RUSH system. […] Molecular mass standards (in kDa) are indicated on the left in panel FIG. 2D. The structures of the proteins detected by immunoblot are indicated based on the scheme shown in FIG. 1B and include antibody heavy and light chains, GFP, SBP, and a linker with a furin cleavage site. The truncated shape at the antibody C-terminus represents linker residues left after cleavage by furin. Results are representative of at least 3 independent experiments.
U2OS clone #7 cells were seeded in black 96-well imaging plates (Greiner bio one, Kremsmünster, Austria). After 24 h, the medium was removed, cells were rinsed with 37° C. pre-heated PBS and fixed in PBS supplemented with 4% paraformaldehyde (PFA, Sigma) and 1 μg/mL Hoechst (Life Technologies, Carlsbad, CA, USA) for 20 min under agitation at room temperature (RT). Cells were rinsed with PBS before addition of a 5% FBS/0.3% Triton X-100/PBS permeabilizing solution for 30 min under agitation at RT. Cells were rinsed with PBS and incubated overnight under agitation at 4° C. with the primary antibody in 1% BSA/PBS. Cells were washed with PBS and incubated for 45 min under agitation at RT with the secondary antibody in 1% BSA/PBS. Finally, cells were washed, and processed for image acquisition using an IXM XL BioImager (Molecular Devices, Sunnyvale, CA).

[2] = tested on: RUSH antibody release and furin processing, U2OS clone #7 cells; test: Western blot of cell lysates and concentrated supernatants of clone #7; type: cell-based, human; settings: 40 μM biotin, 4 h; FIG. 2C
Source text: as §1
U2OS clone #7 cells were seeded in T-175 flasks and kept for 24 h at 37° C. in a humidified incubator with 5% CO2. […] At the end of the incubation time, cells were harvested and lysed in RIPA buffer (Thermo Fisher Scientific) supplemented with protease and phosphatase inhibitors (Roche, Basel, Switzerland). Additionally, cell culture supernatants were collected and concentrated ~100-fold in Amicon 50 kDa filter unit (Sigma) according to the manufacturer's instructions. Cell lysate and concentrated supernatant protein concentrations were determined using the BCA™ protein assay kit (Thermo Fisher Scientific). […] The membranes were then washed 3 times for 5 min with 0.01% Tween-20/TBS and peroxidase activity was evaluated with Amersham ECL Primer Western Blotting Detection Reagent (GE Healthcare, Little Chalfont, UK) on ImageQuant™ LAS4000 (GE Healthcare).

[3] = tested on: biotin-induced antibody release, U2OS clone #7 cells; test: High-throughput RUSH screen: biotin-induced cytoplasmic GFP signal decay (antibody release), U2OS clone #7; type: cell-based, human
Procedure: FIGS. 4A-4C show the high-throughput screening of chemical compound libraries for the identification of modulators of protein secretion. […] U2OS clone #7 is plated in 384-well plates and incubated for 24 h before treatment with each compound of the Prestwick, ICCB Known Bioactives, or Autophagy Compound Library at 2 concentrations, low and high (with a 10-fold difference). […] The results of the Prestwick library screening at the low drug concentration are plotted. Brefeldin A was used as a positive control of the inhibition of secretion. The compounds causing a cytoplasmic GFP intensity below that observed for biotin-only treated cells are potential enhancers of protein secretion.
U2OS cells were transfected with the streptavidin-KDEL plasmid using Lipofectamine 2000 (Thermo Fisher Scientific) and selected in medium supplemented with G418 (400 μg/mL, Gibco-Invitrogen) for 2 weeks. Limiting dilution in 96-well plates was used for single cell isolation from the selected pool. Clones were amplified and selected based on streptavidin immunofluorescence. Clone #BD6 showing the highest streptavidin expression was further expanded in medium supplemented with G418 (200 μg/mL) and transfected with the anti-PD-L1 IgG RUSH plasmid using Lipofectamine 2000 and selected in medium supplemented with G418 (200 μg/mL) and hygromycin (100 μg/mL, Santa Cruz Biotechnology) for 2 weeks. Limiting dilution in 96-well plates was used for single cell isolation from clone #BD6-derived selected pool. Clones were amplified and selected based on GFP fluorescence and clone #7 was selected for further characterization and screening campaigns.
U2OS clone #7 cells were seeded in black 384-well imaging plates (Greiner bio one), 2,000 cells/well, and incubated for 24 h at 37° C. in a humidified incubator with 5% CO2. Cells were treated on the next day with the compounds from either the Prestwick library at […], the ICCB Known Bioactives library at 1/100^e or 1/1000^e, or the autophagy compound library at 10 μM or 1 μM for 4 h. […] Cells were then fixed as described above and processed for subsequent automated image acquisition using a robot-assisted IXM XL BioImager (Molecular Devices, Sunnyvale, CA, USA) equipped with a Sola light source (Lumencor, Beaverton, OR, USA), adapted excitation and emission filters (Semrock) a 16-bit monochrome sCMOS PCO.edge 5.5 camera (PCO, Kelheim, Germany). A 20× PlanAPO objective (Nikon, Tokyo, Japan) was used to acquire a minimum of 4 view fields in each well. The acquired images were processed using the open-access R software (https://www.r-project.org) with the help of freely available packages EBImage (available on the Bioconductor repository https://www.bioconductor.org), and RBioFormats (https://github.com/aoles/RBioFormats), and the custom packages MetaxpR (https://github.com/asauvat/MetaxpR) and MorphR (https://github.com/kroemerlab/MorphR). Nuclei were first detected using Hoechst 33342 signal and used as a marker to detect cytoplasmic areas based on GFP signal, allowing for the evaluation of cytoplasmic GFP intensity. Data were thereafter extracted and statistically evaluated using R (https://www.r-project.org). Data were normalized using negative and positive controls, reduced and transformed into a Z-score. The experiments were repeated manually at low scale with selected drugs to confirm their effects on secretion, in this second set of assays, U2OS clone #7 cells incubated with secretion inhibitors were fixed and stained with Hoechst as described above for imaging and viability determination based on cell counts.
We next sought to use clone #7 in screening campaigns for the identification of drugs capable of enhancing or inhibiting antibody secretion. […] Cell counting was facilitated by nuclear counterstaining with Hoechst 33324 in order to assess viability and distinguish drug effects on the secretion kinetics from direct cytotoxicity and select relevant drugs for further characterization. […]

D3/D2 receptor = settings: cited from earlier work
D1 receptors = settings: cited from earlier work
CHO-K1 cells = test: Flow cytometry binding to PD-L1neg parental CHO cells; settings: FACS
Source text: (§2) FIGS. 3A-F show the characterization of the binding capacity of the anti-PD-L1 RUSH antibody released through the biotin-activated RUSH system (FIGS. 3A, 3C, and FIG. 3E) Schematic representation of the antibody binding to PD-L1^pos cells and detection by flow cytometry. […] Dark grey, binding to PD-L1^pos CHO cells (CHO-PDL1); light grey, binding to PD-L1^neg parental CHO cells (CHO-K1). Antibody binding is detected by means of an indirect immunofluorescence assay with a secondary anti-Fc APC conjugated or by direct measurement of GFP fluorescence.
(§3) Human osteosarcoma U2OS cells obtained from the Kroemer lab were maintained at 37° C. in a humidified incubator with 5% CO2 in Dulbecco's Modified Eagle Medium (DMEM) supplemented with 10% Fetal Bovine Serum (FBS), 1% penicillin-streptomycin and 1% HEPES (Gibco, Carlsbad, CA). CHO-K1 (CCL-61) cells were obtained from the ATCC and cultured at 37° C. in a humidified incubator with 5% CO2 in Nutrient Mixture F-12 Ham's (Sigma, Saint-Louis, MO) supplemented with 10% FBS and 2 mM L-Glutamine (Gibco). PD-L1-expressing CHO cells were cultured in similar conditions in medium supplemented with 7.5 μg/mL puromycin (Gibco). The Prestwick, the BML-2840 ICCB Known Bioactives and the Autophagy Compounds libraries were purchased from Prestwick Chemicals (Illkirch, France), Enzo Life Sciences (Farmingdale, NY), and TargetMol (Boston, MA), respectively. […]

[4] = tested on: human PD-L1 (CHO-PDL1 cells); test: Flow cytometry binding to PD-L1-expressing CHO cells; settings: FACS
Source text: as §2, §3

## O=C(O)CCCC[C@@H]1SC[C@@H]2NC(=O)N[C@@H]21 [biotin]
[1]; 40 μM biotin
  time of relocation of the GFP signal to the Golgi apparatus: 40 to 120 min
  time to complete cytoplasmic GFP signal decay: ≤ 4 h
[1]; 4 h after addition of biotin, FIG. 2B
  GFP/streptavidin co-localization: lost 4 h after addition of biotin
[1]; in the presence of biotin, 4 h, FIG. 2B
  Pearson's correlation coefficient (PCC), hook / GFP-tagged antibody colocalization: 0.29
[2]
  Western blot signal intensity in cell lysate: intensity of the signal was lower

## CCCN(CCC)CCc1cccc2c1CC(=O)N2 [ropinirole, 4-[2-(dipropylamino)ethyl]-1,3-dihydroindol-2-one]
[3]; Prestwick library, low and high concentration, 4 h compound, then 40 μM biotin 1 h
  secretion activator at both low and high concentration (consistently decreased fluorescent signal, among 20 best activators): fulfilled these criteria
[3]; screening campaigns, summary
  decrease of intracytoplasmic GFP fluorescence signal (biotin-stimulated RUSH system): consistently decreased intracytoplasmic GFP fluorescence
D3/D2 receptor
  D3/D2 receptor agonism: potent D3/D2 receptor agonist
D1 receptors
  affinity for D1 receptors: no affinity

## anti-PD-L1: reference anti-human PD-L1 antibody produced from published Atezolizumab heavy and light chains sequences
CHO-K1 cells
  binding to CHO-K1 cells: not PD-L1^neg CHO (CHO-K1) cells
[4]
  binding to CHO-PDL1 cells: binding to PD-L1^pos (CHO-PDL1)

From patent US20260297508A1, “MODULATORS OF PROTEIN SECRETION” (SANOFI, priority 2023, published 2026)
